In paper PMC3138877 (Cancer research, 2011):
Read-outs that look alike come from different tables or passages of the source.

Key:
[1] = system: HCC78 cells (SLC34A2-ROS fusion); conditions: cited from earlier work
[2] = system: H3122 lung cancer cells harboring EML4-ALK E13;A20 (variant 1); test: Cell Titer Blue viability, H3122; type: cell-based, human; conditions: for fold more potent than PF-1066 in H3122: growth inhibition
[3] = system: HepG2 hepatocellular carcinoma cells; test: Cell Titer Blue viability, HepG2; type: cell-based, human; conditions: read-out: IC50 HepG2
[4] = system: HCC78 cells (SLC34A2-ROS fusion); test: Cell Titer Blue viability, HCC78; type: cell-based, human
[5] = system: PC-9 lung cancer cells (EGFR exon 19 del); test: Cell Titer Blue viability, PC-9; type: cell-based, human; conditions: read-out: IC50 PC-9
[6] = system: H2030 lung cancer cells (KRAS G12C); test: Cell Titer Blue viability, H2030; type: cell-based, human; conditions: read-out: IC50 H2030
[7] = Pharmacokinetic study, plasma levels in mice; type: in vivo; conditions: for plasma level at 2 hours after dosing: mice, oral; for bioavailability in vivo / half-life in vivo: pharmacokinetic study
[8] = system: H2228 lung cancer cells (EML4-ALK E6a/b;A20); test: Cell Titer Blue viability, H2228; type: cell-based, human; conditions: for IC50: read-out: IC50 H2228, 72h, Cell titer blue
MET = MET (Homo sapiens, UniProt P08581); test: Ambit KINOMEscan dose-response profiling, MET; conditions: read-out: IC50 MET (Ambit assays), Biochemical potency
[9] = 10-day repeated oral toxicity study in SD rats; conditions: for no significant toxicity (NST) level: 10 days repeated oral administration
ROS1 = ROS1 (Homo sapiens, UniProt P08922); test: Ambit screen, ROS1; conditions: read-out: IC50 ROS1 in vitro (Ambit screen); racemic forms
[10] = system: EML4-ALK E13;A20, EML4-ALK E20;A20, EML4-ALK E6b;A20 and KIF5B-ALK; test: Surrogate kinase assays on four ALK variants in 293 cells; type: cell-based
[11] = Blood-brain-barrier penetration in C57BL/6J mice; type: in vivo; conditions: for brain penetration (brain tissue concentration as % of plasma level): C57BL/6J mice, 2 hours after dosing
ALK = ALK (Homo sapiens, UniProt Q9UM73); test: Ambit KINOMEscan dose-response profiling, ALK; conditions: for IC50: read-out: IC50 ALK (Ambit assays), Biochemical potency, Kinomescan
H3122 cells = test: Annexin V / propidium iodide apoptosis assay; type: cell-based, human; conditions: 72h, increasing concentrations
[12] = system: SY5Y neuroblastoma cells (ALK F1174L); test: Cell Titer Blue viability, SY5Y; type: cell-based, human; conditions: read-out: IC50 SY5Y, 72h
[13] = system: SUDHL-1 lymphoma cells (NPM-ALK); test: Cell Titer Blue viability, SUDHL-1; type: cell-based, human; conditions: read-out: IC50 SUDHL-1, 72h
[14] = system: MKN-45 gastric carcinoma cells (MET dependent); test: Cell Titer Blue viability, MKN-45; type: cell-based, human; conditions: read-out: IC50 MKN-45, 72h
H3122 xenografts = test: H3122 xenograft study in nude mice; type: in vivo; conditions: for growth of H3122 xenograft tumors vs vehicle: nude mice, oral gavage; for mouse weight: xenograft experiment
EML4-ALK E13;A20 = EML4-ALK E13;A20 (Homo sapiens, UniProt Q9HC35+Q9UM73); test: Surrogate kinase assay; type: cell-based; conditions: 2 hours treatment, immunoblot, compared with PF-1066
EML4-ALK E13;A20 L1196M = EML4-ALK E13;A20 L1196M (Homo sapiens, UniProt Q9HC35+Q9UM73, L1196M); test: Surrogate kinase assay, L1196M mutant in 293 cells; type: cell-based; conditions: 2 hours, at higher concentrations than for wild-type fusion
[15] = system: Ba/F3 cells expressing EML4-ALK E13;A20 C1156Y; test: Cell Titer Blue viability, Ba/F3 EML4-ALK C1156Y; type: cell-based; conditions: 72h
[16] = system: Ba/F3 cells expressing EML4-ALK E13;A20 L1196M; test: Cell Titer Blue viability, Ba/F3 EML4-ALK L1196M; type: cell-based; conditions: 72h
EML4-ALK E13;A20 C1156Y = EML4-ALK E13;A20 C1156Y (Homo sapiens, UniProt Q9HC35+Q9UM73, C1156Y); test: Surrogate kinase assay, C1156Y mutant in 293 cells; type: cell-based; conditions: 2 hours, at higher concentrations than for wild-type fusion
[17] = system: Ba/F3 cells expressing EML4-ALK E13;A20 WT; test: Cell Titer Blue viability, Ba/F3 EML4-ALK WT; type: cell-based
[18] = system: EML4-ALK E13;A20 in H3122 lung cancer cells; test: Endogenous ALK phosphorylation immunoblot in H3122; type: cell-based, human; conditions: 1 hour treatment, compared to PF-1066
[19] = read-out: IC50 HCC78, 72h, Cell titer blue
[20] = read-out: IC50 H3122, 72h, Cell titer blue
[21] = 72 hours, Chou-Talalay and Mix-Low methods

Chain of ALK (Q9UM73 19-1620): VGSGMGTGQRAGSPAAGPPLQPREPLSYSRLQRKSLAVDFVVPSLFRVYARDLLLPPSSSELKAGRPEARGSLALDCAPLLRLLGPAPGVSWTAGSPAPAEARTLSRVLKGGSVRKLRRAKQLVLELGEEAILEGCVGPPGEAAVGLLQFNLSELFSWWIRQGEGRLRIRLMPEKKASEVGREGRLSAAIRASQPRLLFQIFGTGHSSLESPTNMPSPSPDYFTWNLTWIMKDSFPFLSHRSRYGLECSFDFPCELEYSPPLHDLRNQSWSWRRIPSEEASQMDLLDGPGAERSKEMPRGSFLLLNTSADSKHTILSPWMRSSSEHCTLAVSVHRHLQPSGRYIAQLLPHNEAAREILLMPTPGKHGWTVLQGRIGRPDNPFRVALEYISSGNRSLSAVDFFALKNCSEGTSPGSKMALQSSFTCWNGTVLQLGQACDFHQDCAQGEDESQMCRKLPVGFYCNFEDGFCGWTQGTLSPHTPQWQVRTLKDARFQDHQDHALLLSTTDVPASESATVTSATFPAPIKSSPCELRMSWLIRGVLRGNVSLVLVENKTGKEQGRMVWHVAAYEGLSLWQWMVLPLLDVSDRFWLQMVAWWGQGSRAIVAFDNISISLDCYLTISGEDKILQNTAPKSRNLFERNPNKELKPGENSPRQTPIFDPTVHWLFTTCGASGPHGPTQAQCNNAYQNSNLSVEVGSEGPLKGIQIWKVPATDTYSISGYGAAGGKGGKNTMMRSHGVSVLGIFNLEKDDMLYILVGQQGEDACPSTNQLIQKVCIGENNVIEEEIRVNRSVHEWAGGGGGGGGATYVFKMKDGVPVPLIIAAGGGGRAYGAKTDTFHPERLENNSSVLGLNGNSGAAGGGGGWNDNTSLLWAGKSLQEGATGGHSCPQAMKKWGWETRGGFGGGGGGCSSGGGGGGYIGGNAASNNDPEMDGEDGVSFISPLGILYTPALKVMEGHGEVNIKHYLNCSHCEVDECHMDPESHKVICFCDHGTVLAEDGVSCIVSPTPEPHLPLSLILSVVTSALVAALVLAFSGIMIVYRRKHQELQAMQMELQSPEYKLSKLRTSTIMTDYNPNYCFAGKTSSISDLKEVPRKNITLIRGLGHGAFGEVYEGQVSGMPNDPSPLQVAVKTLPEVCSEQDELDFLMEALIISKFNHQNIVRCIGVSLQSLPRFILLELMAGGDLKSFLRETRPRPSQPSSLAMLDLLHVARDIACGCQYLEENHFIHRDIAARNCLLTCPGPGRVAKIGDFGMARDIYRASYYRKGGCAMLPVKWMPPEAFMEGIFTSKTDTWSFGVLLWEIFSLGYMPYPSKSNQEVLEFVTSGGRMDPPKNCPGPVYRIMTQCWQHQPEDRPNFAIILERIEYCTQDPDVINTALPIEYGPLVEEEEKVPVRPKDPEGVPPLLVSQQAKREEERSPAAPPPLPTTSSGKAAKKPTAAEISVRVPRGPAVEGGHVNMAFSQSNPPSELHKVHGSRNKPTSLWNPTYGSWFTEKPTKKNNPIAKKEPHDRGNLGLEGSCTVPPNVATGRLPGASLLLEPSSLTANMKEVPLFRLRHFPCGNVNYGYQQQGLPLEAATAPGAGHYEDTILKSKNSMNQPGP
Chain of MET (P08581 25-1390): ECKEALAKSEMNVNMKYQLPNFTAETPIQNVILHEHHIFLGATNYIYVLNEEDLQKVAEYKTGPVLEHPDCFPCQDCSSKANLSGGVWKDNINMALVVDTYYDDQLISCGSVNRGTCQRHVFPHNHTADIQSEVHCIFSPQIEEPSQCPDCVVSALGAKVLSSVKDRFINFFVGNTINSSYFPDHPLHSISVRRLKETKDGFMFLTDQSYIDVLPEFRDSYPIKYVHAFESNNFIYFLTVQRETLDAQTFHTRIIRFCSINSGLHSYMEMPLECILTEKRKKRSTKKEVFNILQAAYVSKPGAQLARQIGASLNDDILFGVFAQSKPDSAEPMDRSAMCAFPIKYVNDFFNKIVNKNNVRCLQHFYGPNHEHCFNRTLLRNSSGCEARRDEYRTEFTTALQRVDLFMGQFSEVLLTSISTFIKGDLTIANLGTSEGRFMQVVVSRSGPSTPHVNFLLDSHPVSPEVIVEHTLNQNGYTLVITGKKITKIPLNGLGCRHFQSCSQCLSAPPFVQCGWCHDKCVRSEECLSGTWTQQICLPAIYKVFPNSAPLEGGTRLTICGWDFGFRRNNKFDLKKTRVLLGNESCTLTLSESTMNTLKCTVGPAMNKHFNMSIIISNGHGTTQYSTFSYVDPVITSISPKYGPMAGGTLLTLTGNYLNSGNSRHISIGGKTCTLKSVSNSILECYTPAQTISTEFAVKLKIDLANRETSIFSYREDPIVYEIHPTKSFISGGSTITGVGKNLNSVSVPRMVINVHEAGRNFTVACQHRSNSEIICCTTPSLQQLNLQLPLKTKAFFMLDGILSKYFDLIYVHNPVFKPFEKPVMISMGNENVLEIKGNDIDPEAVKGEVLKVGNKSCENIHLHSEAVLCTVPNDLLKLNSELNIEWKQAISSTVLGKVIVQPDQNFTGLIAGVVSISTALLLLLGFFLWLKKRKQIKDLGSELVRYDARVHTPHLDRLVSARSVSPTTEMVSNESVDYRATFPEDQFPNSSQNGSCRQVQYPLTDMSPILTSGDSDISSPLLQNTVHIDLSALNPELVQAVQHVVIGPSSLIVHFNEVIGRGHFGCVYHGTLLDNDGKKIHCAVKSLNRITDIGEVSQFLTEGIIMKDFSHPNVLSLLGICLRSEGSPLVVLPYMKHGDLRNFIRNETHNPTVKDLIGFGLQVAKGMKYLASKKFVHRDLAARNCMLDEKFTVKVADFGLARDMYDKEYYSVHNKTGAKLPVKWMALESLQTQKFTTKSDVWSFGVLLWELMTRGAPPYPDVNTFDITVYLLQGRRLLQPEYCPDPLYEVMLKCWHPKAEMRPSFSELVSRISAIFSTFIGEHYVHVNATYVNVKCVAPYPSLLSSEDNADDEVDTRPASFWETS

| Compound | IC50 [4, 19] [nM] | IC50 (MET) [nM] | IC50 ([3]; 72h, Cell titer blue) [nM] | no significant toxicity (NST) level [9] [mg/kg] | fold more potent against ALK compared to PF-1066 (ALK) | IC50 (ALK) [nM] | IC50 [12] [nM] | IC50 ([5]; 72h, Cell titer blue) [nM] | IC50 [13] [nM] | IC50 [14] [nM] | IC50 ([6]; 72h, Cell titer blue) [nM] | fold more potent than PF-1066 in H3122 [2] [fold] | IC50 [2, 20] [nM] | IC50 [8] [nM] | bioavailability in vivo [7] | half-life in vivo [7] | phospho-ALK in 293 cells transfected with EML4-ALK E13;A20 (EML4-ALK E13;A20) | other results |
| --- | --- | --- | --- | --- | --- | --- | --- | --- | --- | --- | --- | --- | --- | --- | --- | --- | --- | --- |
| COc1cc(N2CCC(N3CCN(C)CC3)CC2)ccc1Nc1ncc(Cl)c(Nc2ccccc2S(=O)(=O)C(C)C)n1 [TAE-684, reference compound] |  |  |  |  |  |  |  |  |  |  |  |  |  |  |  |  |  | sensitivity of HCC78 cells [1]: moderate sensitivity; IC50 ([2]; Homo sapiens, NCI-H3122, 72 h, read-out: IC50 H3122 cell growth): 5 nM |
| C[C@@H](Oc1cc(-c2cnn(C3CCNCC3)c2)cnc1N)c1c(Cl)ccc(F)c1Cl [PF-1066, crizotinib, reference compound] | 1360 |  |  |  |  |  |  |  |  |  |  |  |  |  |  |  |  | IC50 ([3]; Homo sapiens, HepG2, 72 h): 14500 nM; IC50 ([4]; Homo sapiens, HCC78, 72 h, read-out: IC50 HCC78, 72h, Cell titer blue): 1400 nM; IC50 ([5]; Homo sapiens, 72 h): 1670 nM; IC50 ([6]; Homo sapiens, NCI-H2030, 72 h): 2470 nM; concentration at 2 h ([7]; athymic nude (nu/nu), mouse, plasma, po, 50 mg/kg): 10.2 µM |
| CO[C@H]1C[C@@H]2CC[C@@H](C)[C@@](O)(O2)C(=O)C(=O)N2CCCC[C@H]2C(=O)O[C@H]([C@H](C)C[C@@H]2CC[C@@H](O)[C@H](OC)C2)CC(=O)[C@H](C)/C=C(\C)[C@@H](O)[C@@H](OC)C(=O)[C@H](C)C[C@H](C)/C=C/C=C/C=C/1C [Rapamycin, rapamycin, reference compound] |  |  |  |  |  |  |  |  |  |  |  |  |  |  |  |  |  | proliferation of H3122 cells, rapamycin alone ([2]; 72 hours): small but reproducible decrease; proliferation of H2228 cells, rapamycin alone ([8]; 72 hours): small but reproducible decrease |
| C[C@@H](Oc1cc(C(=O)Nc2ccc(C(=O)N3CCN(C)CC3)cc2)nnc1N)c1c(Cl)ccc(F)c1Cl [X-376] | > 3000 | 0.69 | 15100 | 50 | approximately 10 fold | 0.61 | 142 | 3060 | 32 | 150 | 1430 | 3 | 77 | 57 | substantial bioavailability | moderate half-lives | greater reductions in phospho-ALK at lower concentrations of drug | increase of the liver enzymes AST and ALT at NST level ([9]; 50 mg/kg): < 50%; IC50 (ROS1): 19 nM; inhibition of ALK kinase activity of four ALK fusions [10]: dose-dependent inhibition of ALK kinase activity; differences in sensitivity among the four ALK variants ([10]; quantitative examination of immunoblots (data not shown)): no major differences in sensitivity; brain penetration (brain tissue concentration as % of plasma level) ([11]; 50mg/kg): less; apoptosis (Annexin V and propidium iodide) (H3122 cells): increased apoptosis; growth of H3122 xenograft tumors vs vehicle (H3122 xenografts; 50mg/kg bid): significantly delayed the growth of tumors; mouse weight (H3122 xenografts; 50mg/kg bid): unaffected; plasma level at 2 hours after dosing ([7]; 50mg/kg): 6.27 µM |
| C[C@@H]1CN(C(=O)c2ccc(NC(=O)c3cc(O[C@H](C)c4c(Cl)ccc(F)c4Cl)c(N)nn3)cc2)C[C@H](C)N1 [X-396] | > 3000 | 0.74 | 9640 | 80 | approximately 10 fold | < 0.4 | 68 | 2990 | 9 | 156 | 757 | 10 | 15 | 45 | substantial bioavailability | moderate half-lives | greater reductions in phospho-ALK at lower concentrations of drug | ALK autophosphorylation, L1196M (EML4-ALK E13;A20 L1196M): significantly diminished; increase of the liver enzymes AST and ALT at NST level ([9]; 80mg/kg): < 50%; brain penetration (brain tissue concentration as % of plasma level) ([11]; 25mg/kg): 13%; projected concentration in human brain ([11]; projection from mouse study at a human plasma level of ∼500nM): about 65 nM; IC50 ([15]; read-out: IC50 Ba/F3 + EML4-ALK E13;A20 C1156Y, Cell titer blue): 48 nM; IC50 ([15]; read-out: IC50 Ba/F3 EML4-ALK E13;A20 C1156Y): ≤ 100 nM; IC50 ([16]; read-out: IC50 Ba/F3 + EML4-ALK E13;A20 L1196M, Cell titer blue): 106 nM; IC50 ([16]; read-out: IC50 Ba/F3 EML4-ALK E13;A20 L1196M): ≤ 100 nM; ALK autophosphorylation, C1156Y (EML4-ALK E13;A20 C1156Y): significantly diminished; fold more potent than PF-1066 in Ba/F3 EML4-ALK E13;A20 wild-type ([17]; growth inhibition): ~10 fold; IC50 ([17]; read-out: IC50 Ba/F3 + EML4-ALK E13;A20 WT, 72h, Cell titer blue): 22 nM; growth of H3122 xenograft tumors vs vehicle (H3122 xenografts; 25mg/kg bid): significantly delayed the growth of tumors; mouse weight (H3122 xenografts; 25mg/kg bid): unaffected; cell growth of H3122, combination with rapamycin [2, 21]: synergistic decrease of cell growth; cell growth of H2228, combination with rapamycin [8, 21]: synergistic decrease of cell growth; endogenous ALK phosphorylation in H3122 [18]: inhibited ALK phosphorylation at lower concentrations of drug; plasma level at 2 hours after dosing ([7]; 25mg/kg): 2.28 µM |
